Test results from patent US12024506B2, “Compounds” (Oxford University Innovation Limited, priority 2018, dated 2024).

Tested on: HT1080 cells
Test: Cell viability assay 2 (CellTiterGlo), HT1080 cells
Assay type: cell-based
Settings: Homo sapiens, HT-1080, cell line printed as HCT1080, 48 or 72 h
Experimental: Cancer cell lines were in seeded in ViewPlates-96 microplates (PerkinElmer). HT1080 cells at 7500 cells per well and cultured in DMEM, high glucose, GlutaMAX media containing 10% FBS at 37° C. in 5% CO2 atmosphere. Cells were cultured overnight and the compounds (dissolved in DMSO and diluted to 0.2% DMSO) were added to the cells at concentrations ranging from 0 to 20 μM. The cells were incubated under standard culture conditions for either 24, 48 or 72 h. Cell viability was as quantitated using the CellTiterGlo Luminescent Cell Viability Assay (Promega) according to the manufacturer's instructions to measure ATP generated by metabolically active cells. Luminescent signals were measured using an Envision 2103 Multilabel Microplate Reader (PerkinElmer). The luminescence signals obtained from the compound-treated cells were normalized against the signal for DMSO-only treated cells.

IC50: 10 µM
SMILES: COc1nc(-c2cccc3c2OCCO3)ccc1Nc1ccc(CN(C)C)cc1 [compound 56, [6-(2,3-Dihydro-benzo[1,4]dioxin-5-yl)-2-methoxy-pyridin-3-yl]-(4-dimethylaminomethyl-phenyl)-amine]
